Drawing on patent US12527831B2, “Skin care compositions comprising synergistic blend of sacred lotus and tea plant or sacred lotus and German Chamomile and cosmetic applications thereof” (ISP INVESTMENTS LLC, priority 2019, dated 2026), this text covers IC50 for one compound.

The assay relates to IL-1α. The experiment in a line: Inhibition of IL-1α induced by SDS in cultured epidermal keratinocytes (ELISA). The assay is classed as cell-based. Particulars: Homo sapiens, Keratinocyte; anti-inflammatory benchmark, HEK; read-out: IC50 in inhibiting SDS-induced IL-1α. As for the experimental part:
Normal human adult epidermal keratinocytes (HEK) and all cell culture supplies were obtained from Life Technologies Co. (Carlsbad, CA, USA). The cells were grown and then maintained in keratinocyte basal medium 154 ([…]) with added human keratinocyte growth supplements (HKGS) at 37° C. in an atmosphere of 5% CO2 and used between passages 2 to 4. For the experiments, HEK cells were trypsinized, seeded in 96-well plates, and grown to 80% confluence. Specific concentrations of SDS were used for induction of chemokines and cytokines in the cultured HEK cells. IL-1α was induced with 25 μg/mL SDS. The cells were exposed for 16 hours to either SDS alone, or in combination with test articles at various concentrations in triplicates. After incubation, HEK cell supernatants were collected, and levels of interleukins were quantified using Quantikine® ELISA kits from R&D Systems Inc. IL-1α was quantified with catalogue number SLA50 kit. Percent (%) inhibition of IL-1α by the test articles were calculated by comparing to controls from non-SDS-induced cells considered as 0% and from SDS-induced cells considered as 100%. LDH assay using CytoscanTM LDH Assay kit (G-Biosciences Cat. No. 786-324) was performed on all HEK culture supernatants to make sure all tested concentrations had no cytotoxicity, and Kit-supplied lysis buffer was used as positive control.

What is called IC50 is the concentration that inhibits the measured activity by half.

`CC(=O)Oc1ccccc1C(=O)O` [Aspirin]: the IC50 was 230 µg/mL.
